Assay results taken from patent US20140315876A1, “BETA-LACTAMASE INHIBITORS” (priority 2013, published 2014).
Structures can show the parent of a compound that is named as a salt.

How the values were obtained:
[1] = tested on: bacterial strains that express the class D cephalosporinase OXA-15; test: Synergy MIC / standard BLI potentiation MIC assay, strains expressing OXA-15; assay type: cell-based, E. coli; settings: in the presence of a β-lactam; comparator Avibactam (comparator compound CCC)
Experimental: (§1) The experimental protocol was performed according to Clinical and Laboratory Standards Institute (CLSI) guidelines with modifications as described below (CLSI guidelines can be derived from the CLSI document M07-A9 published in January 2012: “Methods for Dilution Antimicrobial Susceptibility Tests for Bacteria That Grow Aerobically; Approved Standard-Ninth Edition”).
(§2) To prepare for MIC testing, frozen glycerol stocks of clinical isolates (Klebsiella pneumoniae, Eschericia coli, Enterobacter spp, Citrobacter spp, or Pseudomonas aeruginosa) were used to streak for isolated colonies on rich, non-selective, tryptic soy agar containing 5% sheep's blood (TSAB). Frozen glycerol stocks of laboratory engineered, isogenic E. coli strains, which contain cloned β-lactamase expressing plasmids were used to streak for isolated colonies on rich, selective LB agar supplemented with 25 μg/mL tetracycline to maintain the plasmid. All strains were incubated at 37° C. for 18-24 hrs.
(§3) On the day of testing, primary cultures were started by scraping off 5-10 colonies from the TSAB plates containing clinical strains or the tetracycline supplemented LB plates containing engineered strains. The clinical strain material was suspended in ˜5 mL of cation adjusted Mueller Hinton Broth (CAMHB) in 14 mL culture tubes. The engineered strain material was suspended in CAMHB (supplemented with 25 μg/mL tetracycline) in 14 mL culture tubes. All strains were incubated at 37° C. with aeration (200 rpm) for ˜2 hrs until the optical density at 600 nm (OD600) was ≧0.1.
(§4) The two compound components of the assay were each diluted in CAMHB and added to the 96-well broth microdilution assay plates. 50 μL of the β-lactam was added to each well of the assay plate in 2-fold dilutions with final concentrations ranging from 128 to 0.13 μg/mL. 25 μL of the BLI compound was added to all wells in the broth microdilution plates at a final concentration of 4 μg/mL. Inoculum cultures were prepared by standardizing the primary cultures to OD600=0.1 and then adding 20 μL of the adjusted primary culture per 1 mL CAMHB for clinical strains or CAMHB (supplemented with tetracycline at 100 μg/mL) for engineered strains, so that the final inoculum density was ˜10^5 colony forming units per milliliter. Diluted inoculum cultures were used to inoculate 25 μL per well in 96-well broth microdilution assay plates. The final volume of each well was 100 μL and contained a β-lactam at different concentrations, a BLI compound at 4 μg/mL concentration, the bacterial culture at an OD600 of approximately 0.001 and when necessary tetracycline at 25 μg/mL.
(§5) Plates were incubated for 18-20 hours at 37° C. with aeration (200 rpm). Following incubation, growth was confirmed visually placing plates over a viewing apparatus (stand with a mirror underneath) and then OD600 was measured using a SpectraMax 340PC384 plate reader (Molecular Devices, Sunnyvale, Calif.). Growth was defined as turbidity that could be detected with the naked eye or achieving minimum OD600 of 0.1. MIC values were defined as the lowest concentration producing no visible turbidity.
(§6) The synergy MIC (sMIC) assay determines the concentration of the BLI required to potentiate the activity of a fixed concentration of a β-lactam antibiotic against β-lactamase producing bacterial strains. The experimental protocol was performed according to Clinical and Laboratory Standards Institute (CLSI) guidelines with modifications as described below (CLSI guidelines can be derived from the CLSI document M07-A9 published in January 2012: “Methods for Dilution Antimicrobial Susceptibility Tests for Bacteria That Grow Aerobically; Approved Standard-Ninth Edition”). […]

[2] = tested on: bacterial strains that express KPC β-lactamases; test: Synergy MIC / standard BLI potentiation MIC assay, strains expressing KPC β-lactamases; assay type: cell-based; settings: more active for at least one KPC strain and/or better spectrum of activity than Avibactam; in the presence of a β-lactam
Experimental: as §1, §2, §3, §4, §5, §6

Compound	activity against bacterial strains that express the class D cephalosporinase OXA-15, compared with Avibactam [1]	activity and/or spectrum of activity against bacterial strains that express KPC β-lactamases, compared with Avibactam [2]
N=C(N)N1CC(c2nnc([C@@H]3CC[C@@H]4CN3C(=O)N4OS(=O)(=O)O)o2)C1 [Compound 709, (2S,5R)-2-(5-(1-carbamimidoylazetidin-3-yl)-1,3,4-oxadiazol-2-yl)-7-oxo-1,6-diazabicyclo[3.2.1]octan-6-yl hydrogen sulfate]	more active than Avibactam	more active than Avibactam
O=C1N2C[C@@H](CC[C@H]2c2nnc([C@H]3CCNC3)o2)N1OS(=O)(=O)O [Compound 758, (2S,5R)-7-oxo-2-(5-((S)-pyrrolidin-3-yl)-1,3,4-oxadiazol-2-yl)-1,6-diazabicyclo[3.2.1]octan-6-yl hydrogen sulfate]	more active than Avibactam	more active than Avibactam
N[C@@H]1CN[C@@H](c2nnc([C@@H]3CC[C@@H]4CN3C(=O)N4OS(=O)(=O)O)o2)C1 [Compound 763, (2S,5R)-2-(5-((2R,4S)-4-aminopyrrolidin-2-yl)-1,3,4-oxadiazol-2-yl)-7-oxo-1,6-diazabicyclo[3.2.1]octan-6-yl hydrogen sulfate]	more active than Avibactam	more active than Avibactam
O=C1N2C[C@@H](CC[C@H]2c2nnc(CCNC3CCNCC3)o2)N1OS(=O)(=O)O [Compound 770, (2S,5R)-7-oxo-2-(5-(2-(piperidin-4-ylamino)ethyl)-1,3,4-oxadiazol-2-yl)-1,6-diazabicyclo[3.2.1]octan-6-yl hydrogen sulfate]	more active than Avibactam	more active than Avibactam
N=C1NCC(c2nnc([C@@H]3CC[C@@H]4CN3C(=O)N4OS(=O)(=O)O)o2)N1 (stereo partly drawn) [Compound 767, (2S,5R)-2-(5-(2-iminoimidazolidin-4-yl)-1,3,4-oxadiazol-2-yl)-7-oxo-1,6-diazabicyclo[3.2.1]octan-6-yl hydrogen sulfate]	more active than Avibactam	more active than Avibactam
N[C@H]1CN[C@@H](c2nnc([C@@H]3CC[C@@H]4CN3C(=O)N4OS(=O)(=O)O)o2)C1 [Compound 761, (2S,5R)-2-(5-((2R,4R)-4-aminopyrrolidin-2-yl)-1,3,4-oxadiazol-2-yl)-7-oxo-1,6-diazabicyclo[3.2.1]octan-6-yl hydrogen sulfate]	more active than Avibactam	more active than Avibactam
N[C@H]1C[C@@H](CCc2nnc([C@@H]3CC[C@@H]4CN3C(=O)N4OS(=O)(=O)O)o2)C1 [Compound 754, (2S,5R)-2-(5-(2-((1s,3S)-3-aminocyclobutyl)ethyl)-1,3,4-oxadiazol-2-yl)-7-oxo-1,6-diazabicyclo[3.2.1]octan-6-yl hydrogen sulfate]	more active than Avibactam	more active than Avibactam
NC1CCN(Cc2nnc([C@@H]3CC[C@@H]4CN3C(=O)N4OS(=O)(=O)O)o2)CC1 [Compound 774, (2S,5R)-2-(5-((4-aminopiperidin-1-yl)methyl)-1,3,4-oxadiazol-2-yl)-7-oxo-1,6-diazabicyclo[3.2.1]octan-6-yl hydrogen sulfate]	more active than Avibactam	more active than Avibactam
N=C(N)N1CC(NCc2nnc([C@@H]3CC[C@@H]4CN3C(=O)N4OS(=O)(=O)O)o2)C1 [Compound 746, (2S,5R)-2-(5-(((1-carbamimidoylazetidin-3-yl)amino)methyl)-1,3,4-oxadiazol-2-yl)-7-oxo-1,6-diazabicyclo[3.2.1]octan-6-yl hydrogen sulfate]	more active than Avibactam	more active than Avibactam
N[C@H]1CC[C@@H](c2nnc([C@@H]3CC[C@@H]4CN3C(=O)N4OS(=O)(=O)O)o2)C1 [Compound 768, (2S,5R)-2-(5-((1R,3S)-3-aminocyclopentyl)-1,3,4-oxadiazol-2-yl)-7-oxo-1,6-diazabicyclo[3.2.1]octan-6-yl hydrogen sulfate]	more active than Avibactam	more active than Avibactam
CNCCCc1nnc([C@@H]2CC[C@@H]3CN2C(=O)N3OS(=O)(=O)O)o1 [Compound 734, (2S,5R)-2-(5-(3-(methylamino)propyl)-1,3,4-oxadiazol-2-yl)-7-oxo-1,6-diazabicyclo[3.2.1]octan-6-yl hydrogen sulfate]	more active than Avibactam	more active than Avibactam
N[C@H]1C[C@H](CCc2nnc([C@@H]3CC[C@@H]4CN3C(=O)N4OS(=O)(=O)O)o2)C1 [Compound 753, (2S,5R)-2-(5-(2-((1r,3R)-3-aminocyclobutyl)ethyl)-1,3,4-oxadiazol-2-yl)-7-oxo-1,6-diazabicyclo[3.2.1]octan-6-yl hydrogen sulfate]	more active than Avibactam	more active than Avibactam
N=C(N)NC1CC(Cc2nnc([C@@H]3CC[C@@H]4CN3C(=O)N4OS(=O)(=O)O)o2)C1 (stereo partly drawn) [Compound 752, (2S,5R)-2-(5-((3-guanidinocyclobutyl)methyl)-1,3,4-oxadiazol-2-yl)-7-oxo-1,6-diazabicyclo[3.2.1]octan-6-yl hydrogen sulfate]	more active than Avibactam	more active than Avibactam
N=C(N)Nc1nnc([C@@H]2CC[C@@H]3CN2C(=O)N3OS(=O)(=O)O)o1 [Compound 738, (2S,5R)-2-(5-guanidino-1,3,4-oxadiazol-2-yl)-7-oxo-1,6-diazabicyclo[3.2.1]octan-6-yl hydrogen sulfate]	more active than Avibactam	more active than Avibactam
N[C@H]1C[C@H](c2nnc([C@@H]3CC[C@@H]4CN3C(=O)N4OS(=O)(=O)O)s2)C1 [Compound 783, (2S,5R)-2-(5-((1r,3S)-3-aminocyclobutyl)-1,3,4-thiadiazol-2-yl)-7-oxo-1,6-diazabicyclo[3.2.1]octan-6-yl hydrogen sulfate]	more active than Avibactam	more active than Avibactam
CNCCc1nnc([C@@H]2CC[C@@H]3CN2C(=O)N3OS(=O)(=O)O)o1 [Compound 722, (2S,5R)-2-(5-(2-(methylamino)ethyl)-1,3,4-oxadiazol-2-yl)-7-oxo-1,6-diazabicyclo[3.2.1]octan-6-yl hydrogen sulfate]	more active than Avibactam	more active than Avibactam
